The results in this text go back to article PMC4030953, “Pyranose Dehydrogenase from Agaricus campestris and Agaricus xanthoderma: Characterization and Applications in Carbohydrate Conversions” (Biomolecules, 2013).

Assay [1] deals with T1, AcPDH (Agaricus campestris, UniProt V5NDL4).
T1 construct: gene pdh1
Nature of the assay: in-gel flavin fluorescence after SDS-PAGE. It is filed as binding. The settings on record: covalent; UV 302 nm.

Assay [2] addresses T1, AcPDH. Briefly: spectrophotometric electron acceptor reduction. The class given is biochemical. The following applies: apparent, 25 mM D-glucose, pH 8.5, 30 °C. The source says: spectrophotometric electron acceptor reduction on AcPDH
The target of the next assay is T2, AxPDH (Agaricus xanthodermus, UniProt V5NC32).
T2 construct: gene pdh1
T2 sequence (V5NC32 26-600): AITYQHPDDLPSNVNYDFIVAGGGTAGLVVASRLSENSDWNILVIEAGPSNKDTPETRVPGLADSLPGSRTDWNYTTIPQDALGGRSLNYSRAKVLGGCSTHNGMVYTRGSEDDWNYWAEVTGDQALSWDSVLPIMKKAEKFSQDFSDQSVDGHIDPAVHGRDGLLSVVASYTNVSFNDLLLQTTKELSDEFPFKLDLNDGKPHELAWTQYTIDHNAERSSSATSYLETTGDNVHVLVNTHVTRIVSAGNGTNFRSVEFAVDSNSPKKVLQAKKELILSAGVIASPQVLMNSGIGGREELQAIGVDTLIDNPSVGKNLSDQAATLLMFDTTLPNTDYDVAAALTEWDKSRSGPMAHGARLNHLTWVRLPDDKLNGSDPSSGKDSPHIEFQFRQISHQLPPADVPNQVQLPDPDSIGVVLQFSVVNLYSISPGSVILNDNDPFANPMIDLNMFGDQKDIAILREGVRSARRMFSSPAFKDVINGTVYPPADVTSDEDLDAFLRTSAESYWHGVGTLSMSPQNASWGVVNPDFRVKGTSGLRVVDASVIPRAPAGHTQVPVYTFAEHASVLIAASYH
Briefly: spectrophotometric electron acceptor reduction. It is filed as biochemical. The following applies: apparent, 25 mM D-glucose, pH 8.5, 30 °C. The source says:
spectrophotometric electron acceptor reduction on AxPDH

T1 sequence (V5NDL4 22-595): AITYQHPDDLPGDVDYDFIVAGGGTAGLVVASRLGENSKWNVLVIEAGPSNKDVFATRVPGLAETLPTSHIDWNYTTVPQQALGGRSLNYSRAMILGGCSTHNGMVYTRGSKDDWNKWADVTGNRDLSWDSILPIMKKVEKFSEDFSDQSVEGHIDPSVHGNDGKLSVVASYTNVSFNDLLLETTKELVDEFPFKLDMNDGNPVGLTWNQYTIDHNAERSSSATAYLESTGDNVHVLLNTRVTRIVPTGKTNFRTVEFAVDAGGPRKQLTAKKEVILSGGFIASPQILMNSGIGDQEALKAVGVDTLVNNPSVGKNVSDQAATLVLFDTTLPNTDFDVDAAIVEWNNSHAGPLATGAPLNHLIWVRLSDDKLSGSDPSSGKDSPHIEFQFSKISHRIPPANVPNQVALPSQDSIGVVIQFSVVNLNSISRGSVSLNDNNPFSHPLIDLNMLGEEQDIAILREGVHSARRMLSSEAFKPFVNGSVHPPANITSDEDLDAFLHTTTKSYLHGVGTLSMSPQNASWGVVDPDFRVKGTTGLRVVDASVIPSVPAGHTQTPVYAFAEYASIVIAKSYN

In the case of `Cc1cc2nc3c(=O)[nH]c(=O)nc-3n(C[C@H](O)[C@H](O)[C@H](O)COP(=O)(O)OP(=O)(O)OC[C@H]3O[C@@H](n4cnc5c(N)ncnc54)[C@H](O)[C@@H]3O)c2cc1C` [FAD], at AcPDH [1], the “in-gel flavin fluorescence after SDS-PAGE” value is “AcPDH and AxPDH showed a bright band under UV-light”.

As for `F[P-](F)(F)(F)(F)F.[Fe+3].c1cc[cH-]c1.c1cc[cH-]c1` [Fc^+PF6], the figures for the Michaelis constant (Km) on AcPDH [2] and at AxPDH were 1190 ± 170 µM and 30 µM, respectively.
